Source: patent publication US20050143427A1, “[B]-fused bicyclic proline derivatives and their use for treating arthritic conditions” (priority 2003, published 2005)
Read-outs that look alike come from different tables or passages of the source.

Columns and labels:
[1] = Drug plasma half-life assay (DPH-LA) and bioavailability in rat; type: in vivo; details: male
Procedure: Three fasted male Sprague-Dawley rats are dosed by intravenous infusion via cannula over 5 minutes of 3 mg/kg of invention compound in 1.0 mL saline solution, and the cannulas were each rinsed with 1.0 mL saline solution immediately following infusion. Animals are fed at 4 hours post dose. Blood samples are collected by conventional means in tubes containing ethylenediaminetetraacetic acid (“EDTA”) at Times 0 (predose), 0.083 (end of infusion), 0.25, 0.5, 1, 2, 4, 6, 8, 12, and 24 hours post dose. Plasma is separated from the blood and stored frozen until analyzed by conventional high performance liquid chromatography, whereby 5.0 ng/mL was the lower limit of quantitation.
Three fasted male Wistar rats are dosed by oral gavage with optionally 5 mg/kg, 30 mg/kg, or 300 mg/kg of invention compound. Animals are fed at 4 hours post dose. Blood samples are collected by conventional means in tubes containing EDTA at Times 0 (predose), 0.5, 1, 2, 4, 6, 8, 12, and 24 hours post dose. Plasma is separated from the blood and stored frozen until analyzed.
Mean plasma half-life was determined by thawing and assaying the plasma samples using high performance liquid chromatography by conventional means. A concentration of test compound of 5.0 ng/mL was the lower limit of quantitation.
Plasma half-life was calculated as the time in hours by conventional means. Drug quantitation is done by comparison to standard samples containing known amounts of test compound.
Mean bioavailability for test compound was determined by calculating area under the concentration-time curve (“AUC”) Extrap using conventional methods.

[2] = biological target: pig alpha-2-delta receptor 1 (A2DR1) (Sus scrofa, UniProt A0A287BIN3); test: [3H]Gabapentin scintillant proximity A2DR1 binding assay (A2DR1 SPA, Biological Method 5); details: displacement of [3H]-gabapentin
pig alpha-2-delta receptor 1 (A2DR1), sequence (A0A287BIN3 1-1109): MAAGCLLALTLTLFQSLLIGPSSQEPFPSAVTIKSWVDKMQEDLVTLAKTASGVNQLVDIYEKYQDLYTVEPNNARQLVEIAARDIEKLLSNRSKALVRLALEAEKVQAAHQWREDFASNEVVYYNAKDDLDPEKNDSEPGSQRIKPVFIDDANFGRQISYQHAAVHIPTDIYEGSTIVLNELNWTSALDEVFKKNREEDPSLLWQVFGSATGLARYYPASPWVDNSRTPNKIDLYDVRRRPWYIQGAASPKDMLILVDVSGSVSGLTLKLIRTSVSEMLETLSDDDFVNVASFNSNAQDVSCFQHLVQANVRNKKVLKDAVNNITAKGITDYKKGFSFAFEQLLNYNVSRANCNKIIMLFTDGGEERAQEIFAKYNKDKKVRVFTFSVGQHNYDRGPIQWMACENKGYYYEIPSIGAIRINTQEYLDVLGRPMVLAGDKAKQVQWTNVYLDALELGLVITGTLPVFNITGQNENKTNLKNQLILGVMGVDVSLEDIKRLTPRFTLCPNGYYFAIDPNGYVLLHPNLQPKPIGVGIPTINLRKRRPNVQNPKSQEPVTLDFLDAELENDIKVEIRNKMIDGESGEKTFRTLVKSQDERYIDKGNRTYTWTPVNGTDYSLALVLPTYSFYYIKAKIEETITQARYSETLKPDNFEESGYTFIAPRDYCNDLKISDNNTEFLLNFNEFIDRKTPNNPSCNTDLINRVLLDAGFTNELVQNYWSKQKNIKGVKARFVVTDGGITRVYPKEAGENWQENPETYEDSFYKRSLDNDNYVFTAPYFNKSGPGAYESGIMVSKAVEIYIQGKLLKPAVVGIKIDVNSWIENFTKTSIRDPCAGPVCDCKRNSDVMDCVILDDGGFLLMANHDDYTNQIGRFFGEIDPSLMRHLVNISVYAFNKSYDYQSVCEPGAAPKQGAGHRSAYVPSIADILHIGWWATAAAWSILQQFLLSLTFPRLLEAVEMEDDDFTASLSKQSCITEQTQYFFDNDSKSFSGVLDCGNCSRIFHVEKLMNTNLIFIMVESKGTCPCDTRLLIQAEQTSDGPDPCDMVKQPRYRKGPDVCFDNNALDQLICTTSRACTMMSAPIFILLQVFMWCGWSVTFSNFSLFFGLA
Procedure: (§1) Recombinant HEK 293 cells expressing pig A2DR1 and A2DR2 subunits were grown under normal cell culture conditions (RPMI-1640 media with 10% FBS, 200 μg G418, and 1% penicillin/streptomycin 1t 37° C. with 5% CO2) until reaching confluency in T-75 flasks, at which time they were harvested. The harvested cells were suspended in ice-cold 5 mM Tris/5 mM ethylenediaminetetraacetic acid (“EDTA”) buffer, pH 7.4 (“TE buffer”) containing phenylmethylsulfonyl fluoride (“PMSF”) (0.1 mM) and Roche Complete Protease Inhibitor Cocktail, and allowed to sit on ice for 30 minutes. The cells were broken by sonication using 20 bursts, 40-50 cycles, and then centrifuged at 3000×g for 10 minutes. The resulting supernatant was transferred to a new tube and centrifuged at 50,000×g for 30 minutes. The resulting pellet was resuspended in 10 mM HEPES buffer, pH 7.4, homogenized, and stored at—80° C. The A2DR1 or A2DR2 membrane protein concentration was determined by the Pierce BCA method using bovine serum albumin (“BSA”) as the standard.
(§2) The [^3H]gabapentin SPA binding assay was performed in Costar 3632 96-well, clear bottom assay plates using Wheatgerm agglutinin beads (Amersham Pharmacia Biotech). Pig A2DR1 or A2DR2 membranes (10-20 μg protein per well) prepared above in Step (1) and SPA beads (0.5 mg per well) were mixed with 30 nM [^3H]gabapentin (52 Ci/mmol; Amersham Pharmacia Biotech) in 10 mM HEPES/10 mM MgSO4 assay buffer, pH 7.4 using KOH. The final well volume was 200 μL and non-specific binding was determined in the presence of 10 μM unlabeled pregabalin. The final mixture containing A2DR1 or A2DR2 membrane protein incubated with SPA beads, test compounds, and [^3H]gabapentin was incubated at room temperature for 15-24 hours, and the plates were then counted on a Wallace Trilux 1450 Microbeta scintillation counter. Step (3): Determination of IC50 values
(§3) Curve fitting and IC50 values were calculated using a four-parameter, non-linear regression equation from GraphPad Prism 3.0 software, while Ki values were determined using the equation of Chang and Prussoff.

[3] = biological target: pig alpha-2-delta receptor 2 (A2DR2) (UniProt A0A8W4FF87); test: [3H]Gabapentin scintillant proximity A2DR2 binding assay (A2DR2 SPA, Biological Method 5); details: displacement of [3H]-gabapentin
Procedure: as §1, §2, §3

[4] = system: MIA Rat (monosodium iodoacetate-induced osteoarthritis, right knee joint); test: Monosodium iodoacetate-induced osteoarthritis in rat model of joint cartilage damage (MIA Rat); type: in vivo; details: for % I @ 30 mg/kg BID (%) (± SEM): inhibition of loss of hind limb joint function in MIA at Day 14: 30 mg/kg BID oral
Excerpt: One end result of the induction of osteoarthritis in this model, as determined by histologic analysis, is the development of an osteoarthritic condition within the affected joint, as characterized by the loss of Toluidine blue staining and formation of osteophytes. Associated with the histologic changes is a concentration-dependent degradation of joint cartilage, as evidenced by affects on hind-paw weight distribution of the limb containing the affected joint, the presence of increased amounts of proteoglycan or hydroxyproline in the joint upon biochemical analysis, or histopathological analysis of the osteoarthritic lesions.
The invention compounds typically are not effective for relieving joint pain when administered in an acute model, such as the instant MIA Rat model, which has a duration of just 14 or 28 days.
Generally, In the MIA Rat model on Day 0, the hind-paw weight differential between the right arthritic joint and the left healthy joint of male Wistar rats (150 g) are determined with an incapacitance tester, model 2KG (Linton Instrumentation, Norfolk, United Kingdom). The incapacitance tester has a chamber on top with an outwardly sloping front wall that supports a rat's front limbs, and two weight sensing pads, one for each hind paw, that facilitates this determination. Then the rats are anesthetized with isofluorine, and the right, hind leg knee joint is injected with 1.0 mg of mono-iodoacetate (“MIA”) through the infrapatellar ligament. Injection of MIA into the joint results in the inhibition of glycolysis and eventual death of surrounding chondrocytes. The rats are further administered either an invention compound or vehicle (in the instant case, water) daily for 14 days or 28 days.
The invention compound is typically administered at a dose of 30 mg of per kilogram of rat per day (30 mg/kg/day), but may be administered at other doses such as, for example, 10 mg/kg/day, 60 mg/kg/day, 90-mg/kg/day, or 100 mg/kg/day according to the requirements of the invention compound being studied. It is well within the level of ordinary skill in the pharmaceutical arts to determine a proper dosage of an invention compound in this model.
Administration of an invention compound in this model is optionally by oral administration or by intravenous administration via an osmotic pump. After 7 and 14 days for a two week study, or 7, 14, and 28 days for a four week study, the hind-paw weight distribution is again determined. Typically, the animals administered vehicle alone place greater weight on their unaffected left hind paw than on their right hind paw, while animals administered an invention compound show a more normal (i.e., more like a healthy animal) weight distribution between their hind paws. This change in weight distribution was proportional to the degree of joint cartilage damage. Percent inhibition of a change in hind paw joint function is calculated as the percent change in hind-paw weight distribution for treated animals versus control animals. For example, for a two week study, [formula] wherein: ΔWC is the hind-paw weight differential between the healthy left limb and the arthritic limb of the control animal administered vehicle alone, as measured on Day 14; and • ΔWG is the hind-paw weight differential between the healthy left limb and the arthritic limb of the animal administered an invention compound as measured on Day 14.
In order to measure biochemical or histopathological end points in the MIA Rat model, some of the animals in the above study may be sacrificed, and the amounts of free proteoglycan in both the osteoarthritic right knee joint and the contralateral left knee joint may be determined by biochemical analysis. The amount of free proteoglycan in the contralateral left knee joint provides a baseline value for the amount of free proteoglycan in a healthy joint. […]

[5] = biological target: T1, alpha-2-delta receptor 2 (A2DR2) (Homo sapiens, UniProt Q9NY47); test: [3H]Gabapentin A2DR2 binding assay (filter, Biological Method 4); details: displacement of [3H]-gabapentin
T1 construct: expressed in transfected cells; host or cells: HEK 293 (membrane preparation)
T1 sequence (Q9NY47 19-1150): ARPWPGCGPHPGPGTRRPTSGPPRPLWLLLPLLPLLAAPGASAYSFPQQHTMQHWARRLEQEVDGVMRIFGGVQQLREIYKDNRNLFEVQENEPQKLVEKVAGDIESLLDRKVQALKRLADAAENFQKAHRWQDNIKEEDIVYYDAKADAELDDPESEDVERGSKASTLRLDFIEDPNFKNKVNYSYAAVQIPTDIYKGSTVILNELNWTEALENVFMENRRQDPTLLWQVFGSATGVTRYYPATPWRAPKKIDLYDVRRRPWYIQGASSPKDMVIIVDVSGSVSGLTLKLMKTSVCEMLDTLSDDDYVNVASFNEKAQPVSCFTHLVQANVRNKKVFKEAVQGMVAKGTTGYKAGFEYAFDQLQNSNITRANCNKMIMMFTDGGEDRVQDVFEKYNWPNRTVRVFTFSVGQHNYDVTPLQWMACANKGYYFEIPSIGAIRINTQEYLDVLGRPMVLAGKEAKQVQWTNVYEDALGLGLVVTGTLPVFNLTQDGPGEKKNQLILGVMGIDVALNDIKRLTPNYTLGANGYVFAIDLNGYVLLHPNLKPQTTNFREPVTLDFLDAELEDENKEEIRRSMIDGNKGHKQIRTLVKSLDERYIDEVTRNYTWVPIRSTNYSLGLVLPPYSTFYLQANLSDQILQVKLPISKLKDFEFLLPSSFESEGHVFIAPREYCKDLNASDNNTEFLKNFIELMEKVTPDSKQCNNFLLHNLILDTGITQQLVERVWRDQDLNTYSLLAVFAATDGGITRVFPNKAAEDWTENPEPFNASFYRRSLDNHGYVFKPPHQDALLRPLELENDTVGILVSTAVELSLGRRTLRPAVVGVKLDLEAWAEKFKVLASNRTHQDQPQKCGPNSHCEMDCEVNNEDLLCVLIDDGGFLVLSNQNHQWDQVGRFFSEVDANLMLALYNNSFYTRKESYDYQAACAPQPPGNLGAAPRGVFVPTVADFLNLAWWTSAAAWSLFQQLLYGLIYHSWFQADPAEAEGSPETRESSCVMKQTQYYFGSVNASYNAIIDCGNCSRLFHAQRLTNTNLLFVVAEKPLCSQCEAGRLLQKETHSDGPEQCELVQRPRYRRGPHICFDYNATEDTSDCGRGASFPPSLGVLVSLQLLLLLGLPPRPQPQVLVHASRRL
Excerpt: HEK 293 recombinant cells expressing A2DR1 or A2DR2 protein are harvested and washed in phosphate buffered saline (“PBS”). The cells are centrifuged and resuspended in tris(hydroxymethyl)aminomethane-ethylenediaminetetraacetic acid (“Tris-EDTA” or “TE”) buffer containing Roche Complete Protease Inhibitor Cocktail. The cells are homogenized, centrifuged at 3000×g, and the supernatant centrifuged again at 50,000×g. The resulting pellet is resuspended and homogenized in TE. Following determination of A2DR1 or A2DR2 protein concentration, aliquots are stored at −70° C. until the day of testing (membrane preparation may be used for at least 6 months).
In one version, the binding assay is set up in a 96-well format using deep-well polypropylene plates. In a total volume of 500 μL, the following additions are made: 250 μL buffer [[…] N-2-hydroxyethylpiperazine-N′-2-ethanesulfonic acid (“HEPES”), pH 7.4], 25 μL [3H]gabapentin (10 nM final concentration), 200 μL thawed tissue membrane preparation from Step (1) (˜40 μg protein), and 25 μL of test compound at 7 test dilutions (for example, 0.001, 0.01, 0.03, 0.1, 0.3, 1.0, and 10 μM concentrations). Non-specific binding for each plate is determined by the addition of 10 μM of pregabalin instead of test compound in a few of the 96 wells. Following incubation for 45 minutes at 21° C., the contents of the wells are filtered under vacuum onto glass filter/B (“GF/B”) filter mats and then washed 4×1 mL with chilled 50 mM tris(hydroxymethyl)aminomethane (“Tris”) HCl, pH 6.9. The mats are placed into plastic pouches, scintillation cocktail is added, the pouches are sealed, and radioactivity for each sample is counted.
Specific binding values for each concentration are transformed and then analyzed by a 4-parameter nonlinear regression equation provided by Prism graphics software by Graph Pad to determine IC50 values by conventional means.

IC50 [2] [µM] | IC50 [3] [µM] | Compound | other results
1.3 | 4.5 | CCC1CCC2CC(C(=O)O)NC2C1 (centres unmarked) [Example O1] | –
≥ 10 | ≥ 10 | CC(C)(C)C1CCC2NC(C(=O)O)CC2C1 (centres unmarked) [Example O8] | –
2.6 | ≥ 10 | O=C(O)[C@]12C[C@H]1[C@@H]1CCCC[C@@H]1N2 [Example Q1] | –
0.29 | 1.4 | CN(C)CC(C)(C)COC(=O)C1C[C@@H]2CCCC[C@@H]2N1 (some centres unmarked) [Example Y1] | –

More lines, now with the values behind:

Compound | IC50 [2] [µM] | IC50 [3] [µM] | other results
CN1[C@H](C(=O)O)C[C@@H]2CCCC[C@@H]21.Cl [A1] | – | – | bioavailability ([1]; Wistar, in vivo, po, administered orally, rat (footnote of Table 2), read-out: bioavailability): 63%; half-life ([1]; Wistar, rat, in vivo, po, administered orally, rat (footnote of Table 2), read-out: half-life): 10 h
CN1[C@H](C(=O)O)C[C@@H]2CCCC[C@@H]21.Cl [Example A1] | ≥ 10 | ≥ 10 | % I @ 30 mg/kg BID (%) (± SEM): inhibition of loss of hind limb joint function in MIA at Day 14 ([4]; 2-week MIA study, Day 14, rat): 59 ± 17%; bioavailability ([1]; Wistar, in vivo, rat, PO, 30 mg/kg, read-out: Mean Bioavailability): 63%; half-life ([1]; Wistar, rat, in vivo, po, 30 mg/kg, rat plasma, PO, 30 mg/kg, read-out: Mean T1/2 (converted)): 25.3 h; half-life ([1]; Wistar, rat, in vivo, po, 300 mg/kg, rat plasma, PO, 300 mg/kg, read-out: Mean T1/2 (converted)): 11.1 h
CCN1[C@H](C(=O)O)C[C@@H]2CCCC[C@@H]21 [Example A3] | ≥ 10 | ≥ 10 | –
CCCN1[C@H](C(=O)O)C[C@@H]2CCCC[C@@H]21 [Example A5] | ≥ 10 | ≥ 10 | –
CC(C)CN1[C@H](C(=O)O)C[C@@H]2CCCC[C@@H]21 [Example A6] | ≥ 10 | ≥ 10 | –
COCCN1[C@H](C(=O)O)C[C@@H]2CCCC[C@@H]21 [Example A7] | ≥ 10 | ≥ 10 | –
CS(=O)(=O)NC(=O)[C@@H]1C[C@@H]2CCCC[C@@H]2N1 [Example E1] | ≥ 10 | ≥ 10 | –
O=c1[nH]c([C@@H]2C[C@@H]3CCCC[C@@H]3N2)no1 [Example F1] | – | – | IC50 [5]: ≥ 10 µM; % I @ 30 mg/kg BID (%) (± SEM): inhibition of loss of hind limb joint function in MIA at Day 14 ([4]; 2-week MIA study, Day 14, rat): (i) 82^2; %
COC1CCC2CC(C(=O)O)NC2C1 (centres unmarked) [Example O3] | – | – | IC50 [5]: 2.23 µM
O=C(O)C1CC2C(CCCC2C(F)(F)F)N1 (centres unmarked) [Example O10] | ≥ 10 | ≥ 10 | % I @ 10 mg/kg/day (%) (± SEM): inhibition of loss of hind limb joint function in MIA at Day 14 ([4]; 10 mg/kg/day via osmotic pump, 2-week MIA study, Day 14, rat): 0%
O=c1[nH]c([C@@H]2C[C@@H]3CCCC[C@@H]3N2)no1 [F1] | – | – | % I (%) (± SEM): inhibition of loss of hind limb joint function in MIA at Day 14 ([4]; via Alzet osmotic pump (footnote 3), Day 14, rat): (ii) 59 ± 9^3%
O=C(O)[C@@H]1C[C@@H]2CCCC[C@@H]2N1 [OHI2CA, (2S,3aS,7aS)-octahydroindole-2-carboxylic acid, reference compound] | 0.11 | 0.6 | half-life ([1]; Sprague-Dawley, rat plasma, IV, 3 mg/kg, read-out: Mean T1/2 (converted)): 4.01 h; bioavailability ([1]; Wistar, plasma, po, administered orally, rat (footnote of Table 2), read-out: bioavailability): 72%; half-life ([1]; Wistar, plasma, po, administered orally, rat (footnote of Table 2), read-out: half-life): 4 h; bioavailability ([1]; Wistar, plasma, rat, PO, 5 mg/kg, read-out: Mean Bioavailability): 72%; half-life ([1]; Wistar, rat plasma, PO, 5 mg/kg, read-out: Mean T1/2 (converted)): 3.78 h
CN1[C@H](C(=O)O)C[C@@H]2CCCC[C@@H]21 [[2(S),3a(S),7a(S)]-1-methyl-2,3,3a,4,5,6,7,7a-octahydroindole-2-carboxylic acid] | – | – | degree of structural damage to the cartilage ([4]; 30 mg/kg and 10 mg/kg doses, PO BID, 4 weeks post-MIA): significantly decreased; cartilage erosion severity ([4]; 30-mg/kg and 10-mg/kg doses, PO BID, MIA rat): significantly decrease; joint function limitations (differential hind-limb weight bearing) ([4]; PO BID, MIA rat): decrease joint function limitations; joint pain ([4]; all doses (3 to 30 mg/kg PO BID), 4 weeks post-MIA): significantly decreased
